IC50 data for 18 compounds are collected here from BindingDB's records for doi:10.1016/s0960-894x(02)00516-4 (Atherogenics, 2002).

Where only a bound is given, the exact number is not on record here.

This experiment is described as follows: Inhibition of TNF-alpha inducible Vascular cell adhesion molecule-1 expression.
For the compound `CC(C)(Sc1cc(C(C)(C)C)c(O)c(C(C)(C)C)c1)Sc1cc(C(C)(C)C)c(OC(=O)C(F)(F)C(F)(F)C(F)(F)C(=O)O)c(C(C)(C)C)c1` [2,2,3,3,4,4-Hexafluoro-pentanedioic acid mono-{2,6-di-tert-butyl-4-[1-(3,5-di-tert-butyl-4-hydroxy-phenylsulfanyl)-1-methyl-ethylsulfanyl]-phenyl} ester], inhibition was half-maximal at 100 µM (IC50).

Regarding `CC(=O)O/C(=C\C(=O)Oc1c(C(C)(C)C)cc(SC(C)(C)Sc2cc(C(C)(C)C)c(O)c(C(C)(C)C)c2)cc1C(C)(C)C)C(=O)O` [2,6-di(tert-butyl)-4-{1-[3,5-di(tert-butyl)-4-hydroxyphenylsulfanyl]-1-methylethylsulfanyl}phenyl 3-carboxylicacid-3-methylcarbonyloxy-(E)-2-propenoate], it took 17 µM to reach half-maximal inhibition (IC50).

For the compound `CC(C)(Sc1cc(C(C)(C)C)c(O)c(C(C)(C)C)c1)Sc1cc(C(C)(C)C)c(O)c(C(C)(C)C)c1` [2,6-di-tert-butyl-4-(2-(3,5-di-tert-butyl-4-hydroxyphenylthio)propan-2-ylthio)phenol], the IC50 (as a rule, the concentration at which inhibition is half-maximal) was more than 50 µM.

In the case of `CC(C)(Sc1cc(C(C)(C)C)c(O)c(C(C)(C)C)c1)Sc1cc(C(C)(C)C)c(OC(=O)CC(O)CO)c(C(C)(C)C)c1` (stereo not drawn) [3,4-Dihydroxy-butyric acid 2,6-di-tert-butyl-4-[1-(3,5-di-tert-butyl-4-hydroxy-phenylsulfanyl)-1-methyl-ethylsulfanyl]-phenyl ester], the IC50 is 8 µM.

`CC(C)(Sc1cc(C(C)(C)C)c(O)c(C(C)(C)C)c1)Sc1cc(C(C)(C)C)c(OC(=O)CCO)c(C(C)(C)C)c1` [3-Hydroxy-propionic acid 2,6-di-tert-butyl-4-[1-(3,5-di-tert-butyl-4-hydroxy-phenylsulfanyl)-1-methyl-ethylsulfanyl]-phenyl ester] registered an IC50 of 30 µM.

With `CC(C)(CO)CC(=O)Oc1c(C(C)(C)C)cc(SC(C)(C)Sc2cc(C(C)(C)C)c(O)c(C(C)(C)C)c2)cc1C(C)(C)C` [4-Hydroxy-3,3-dimethyl-butyric acid 2,6-di-tert-butyl-4-[1-(3,5-di-tert-butyl-4-hydroxy-phenylsulfanyl)-1-methyl-ethylsulfanyl]-phenyl ester], it took 110 µM to reach half-maximal inhibition (IC50).

`CC(C)(Sc1cc(C(C)(C)C)c(O)c(C(C)(C)C)c1)Sc1cc(C(C)(C)C)c(OC(=O)CCCO)c(C(C)(C)C)c1` [4-Hydroxy-butyric acid 2,6-di-tert-butyl-4-[1-(3,5-di-tert-butyl-4-hydroxy-phenylsulfanyl)-1-methyl-ethylsulfanyl]-phenyl ester]: inhibition was half-maximal at 40 µM (IC50). This IC50 lies about 2.8-fold lower than the previous one.

On to `CC(C)(Sc1cc(C(C)(C)C)c(O)c(C(C)(C)C)c1)Sc1cc(C(C)(C)C)c(OC(=O)CCCCO)c(C(C)(C)C)c1` [5-Hydroxy-pentanoicacid2,6-di-tert-butyl-4-[1-(3,5-di-tert-butyl-4-hydroxy-phenylsulfanyl)-1-methyl-ethylsulfanyl]-phenyl ester], for which the IC50 is 55 µM.

`CC(C)(Sc1cc(C(C)(C)C)c(O)c(C(C)(C)C)c1)Sc1cc(C(C)(C)C)c(OC(=O)C[C@@H](NC(=O)Cc2ccccc2)C(=O)O)c(C(C)(C)C)c1` [(R)-2-Phenylacetylamino-succinic acid 4-{2,6-di-tert-butyl-4-[1-(3,5-di-tert-butyl-4-hydroxy-phenylsulfanyl)-1-methyl-ethylsulfanyl]-phenyl} ester] showed an IC50 of 20 µM.

The compound `CC(C)(Sc1cc(C(C)(C)C)c(O)c(C(C)(C)C)c1)Sc1cc(C(C)(C)C)c(OC(=O)[C@@H](O)CCC(=O)O)c(C(C)(C)C)c1` [(S)-2-Hydroxy-pentanedioic acid 1-{2,6-di-tert-butyl-4-[1-(3,5-di-tert-butyl-4-hydroxy-phenylsulfanyl)-1-methyl-ethylsulfanyl]-phenyl} ester] registered an IC50 of 25 µM.

For `CC(C)(Sc1cc(C(C)(C)C)c(O)c(C(C)(C)C)c1)Sc1cc(C(C)(C)C)c(OC(=O)CO)c(C(C)(C)C)c1` [Hydroxy-acetic acid 2,6-di-tert-butyl-4-[1-(3,5-di-tert-butyl-4-hydroxy-phenylsulfanyl)-1-methyl-ethylsulfanyl]-phenyl ester], the IC50 was found to be 30 µM.

`CC(C)(Sc1cc(C(C)(C)C)c(O)c(C(C)(C)C)c1)Sc1cc(C(C)(C)C)c(OC(=O)CCCCCCC(=O)O)c(C(C)(C)C)c1` [Octanedioic acid mono-{2,6-di-tert-butyl-4-[1-(3,5-di-tert-butyl-4-hydroxy-phenylsulfanyl)-1-methyl-ethylsulfanyl]-phenyl} ester] displayed an IC50 of 45 µM.

Take `CC(C)(Sc1cc(C(C)(C)C)c(O)c(C(C)(C)C)c1)Sc1cc(C(C)(C)C)c(OC(=O)C(=O)O)c(C(C)(C)C)c1` [Oxalic acid mono-{2,6-di-tert-butyl-4-[1-(3,5-di-tert-butyl-4-hydroxy-phenylsulfanyl)-1-methyl-ethylsulfanyl]-phenyl} ester]: the IC50 was more than 50 µM.

In turn, `CC(C)(Sc1cc(C(C)(C)C)c(O)c(C(C)(C)C)c1)Sc1cc(C(C)(C)C)c(OC(=O)CCCC(=O)O)c(C(C)(C)C)c1` [Pentanedioic acid mono-{2,6-di-tert-butyl-4-[1-(3,5-di-tert-butyl-4-hydroxy-phenylsulfanyl)-1-methyl-ethylsulfanyl]-phenyl} ester] had an IC50 of 9 µM.

In turn, `COC(=O)CCC(=O)Oc1c(C(C)(C)C)cc(SC(C)(C)Sc2cc(C(C)(C)C)c(O)c(C(C)(C)C)c2)cc1C(C)(C)C` [Succinic acid 2,6-di-tert-butyl-4-[1-(3,5-di-tert-butyl-4-hydroxy-phenylsulfanyl)-1-methyl-ethylsulfanyl]-phenyl ester methyl ester] displayed an IC50 of 40 µM.

`CC(C)(Sc1cc(C(C)(C)C)c(OC(=O)CCC(=O)O)c(C(C)(C)C)c1)Sc1cc(C(C)(C)C)c(OC(=O)CCC(=O)O)c(C(C)(C)C)c1` [Succinic acid mono-(2,6-di-tert-butyl-4-{1-[3,5-di-tert-butyl-4-(3-carboxy-propionyloxy)-phenylsulfanyl]-1-methyl-ethylsulfanyl}-phenyl) ester] came in with an IC50 of more than 50 µM.

In turn, `CC(C)(Sc1cc(C(C)(C)C)c(O)c(C(C)(C)C)c1)Sc1cc(C(C)(C)C)c(OC(=O)CCC(=O)O)c(C(C)(C)C)c1` [Succinic acid mono-{2,6-di-tert-butyl-4-[1-(3,5-di-tert-butyl-4-hydroxy-phenylsulfanyl)-1-methyl-ethylsulfanyl]-phenyl} ester] gave an IC50 of 6 µM. That is a single-digit micromolar value.

`CC(C)(Sc1cc(C(C)(C)C)c(O)c(C(C)(C)C)c1)Sc1cc(C(C)(C)C)c(OC(=O)COCC(=O)O)c(C(C)(C)C)c1` [{2,6-Di-tert-butyl-4-[1-(3,5-di-tert-butyl-4-hydroxy-phenylsulfanyl)-1-methyl-ethylsulfanyl]-phenoxycarbonylmethoxy}-acetic acid] showed an IC50 of 37 µM. This IC50 lies about 6.2-fold higher than the previous one.
